Experimental findings from patent publication US20230031406A1, “COMPOUNDS AND COMPOSITIONS FOR TREATING CONDITIONS ASSOCIATED WITH NLRP ACTIVITY” (Novartis AG, priority 2018, published 2023) are described below.

This assay has as its system PMA-differentiated THP-1 cells. The experiment in a line: IL-1β production in PMA-differentiated THP-1 cells stimulated with gramicidin (hTHP-1 assay containing 2% fetal bovine serum; Procedures 1 and 2). Type of assay: cell-based, human. The conditions noted are these: 2% fetal bovine serum. A digest of the protocol: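 PMA-primed (20 ng/ml, 16-18 h) THP-1 cells in RPMI with 2% FBS, 50,000 cells/well, were preincubated 1 h with compound (0.0017-100 μM final, 0.37% DMSO), then stimulated 2 h with 5 μM gramicidin. Supernatant IL-1β measured by HTRF.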

[1] abbreviates: Homo sapiens, THP-1, Table B2, numeric bounds, read-out: hTHP-1 IC50.
[2] abbreviates: Homo sapiens, THP-1, Table B2, class symbols, read-out: hTHP-1 IC50.
Setting [3] is: Table B1, class symbols, read-out: Average IC50 of compounds in hTHP-1 assay: hTHP-1 IC50.
The mark [4] stands for this setting: Homo sapiens, THP-1, Table B1, class symbols, read-out: Average IC50 of compounds in hTHP-1 assay: hTHP-1 IC50.
[5] abbreviates: Homo sapiens, THP-1, Table B4, class symbols, read-out: hTHP-1 IC50.
The mark [6] stands for this setting: Table B4, class symbols, read-out: hTHP-1 IC50.

Read-outs that look alike come from different tables or passages of the source. Some results are limits rather than exact numbers.

Regarding `CC(C)n1cc(S(N)(=O)=NC(=O)Nc2c3c(nc4c2CCC4(C)C)CCC3)c(CO)n1` (single isomer, unassigned) [Compound 653b, (S) or (R)-N′-((3,3-dimethyl-1,2,3,5,6,7-hexahydrodicyclopenta [b,e]pyridin-8-yl)carbamoyl)-3-(hydroxymethyl)-1-isopropyl-1H-pyrazole-4-sulfonimidamide], the IC50 under setting [1] is more than 30000 nM. With `CCn1cc(F)c(S(N)(=O)=NC(=O)Nc2c(C)c(C(F)(F)F)nc3c2CCC3)n1` (centres unmarked) [Example 597, 1-Ethyl-4-fluoro-N′-((3-methyl-2-(trifluoromethyl)-6,7-dihydro-5H-cyclopenta[b]pyridin-4-yl)calbamoyl)-1H-pyrazole-3-sulfonimidamide], the half-maximal inhibitory concentration (IC50) (Homo sapiens, THP-1, Table B3, hTHP-1 assay, class symbols, read-out: IC50) lay within 40 to 200 nM.

Take `Cc1c(C(C)C)nc2c(c1NC(=O)N=S(N)(=O)c1ccn(C(C)C)n1)CCC2` (single isomer, unassigned) [Compound 644b, (R) or (S)-1-Isopropyl-N′-((2-isopropyl-3-methyl-6,7-dihydro-5H-cyclopenta[b]pyridin-4-yl)carbamoyl)-1H-pyrazole-3-sulfonimidamide]: under setting [2], the half-inhibitory concentration (IC50) lay within 1000 to 5000 nM.

In the case of `CC(C)c1ncc(F)c(C(C)C)c1NC(=O)N=S(N)(=O)c1ncc(C(C)(C)O)s1` [Compound 165a, (R)- and (S)-N′-((5-fluoro-2,4-diisopropylpyridin-3-yl)carbamoyl)-5-(2-hydroxypropan-2-yl)thiazole-2-sulfonimidamide], the IC50 under setting [3] fell in the range of 200 to 1000 nM. Regarding `Cc1nc2c(c(NC(=O)N=S(N)(=O)c3cnc(C(C)(C)O)s3)c1C(C)C)CCC2` (centres unmarked) [Compound 116, 2-(2-hydroxypropan-2-yl)-N′-((3-isopropyl-2-methyl-6,7-dihydro-5H-cyclopenta[b]pyridin-4-yl)carbamoyl)thiazole-5-sulfonimidamide], under setting [4], the IC50 was 5000 to 30000 nM. As for `CC1CCc2c1nc1c(c2NC(=O)N=S(N)(=O)c2cc(C(C)(C)O)cs2)CCC1` (single isomer, unassigned) [Compound 141bb, (S,R) or (S,S)-4-(2-hydroxypropan-2-yl)-N′-((3-methyl-1,2,3,5,6,7-hexahy-drodicyclopenta[b,e]pyridin-8-yl)carbamoyl)thiophene-2-sulfonimidamide], the 50% inhibitory concentration (IC50) under setting [3] was 5000 to 30000 nM. Consider `CC(C)(O)c1csc(S(N)(=O)=NC(=O)Nc2cc(C3CC3)nc3c2CCC3)c1` (centres unmarked) [Compound 176, N′-((2-cyclopropyl-6,7-dihydro-5H-cyclopenta[b]pyridin-4-yl)carbamoyl)-4-(2-hydroxypropan-2-yl)thiophene-2-sulfonimidamide], for which the 50% inhibitory concentration (IC50) under setting [4] lay in the range of 5000 to 30000 nM.

Turning to `CCn1cc(F)c(S(N)(=O)=NC(=O)Nc2c3c(nc(C(F)(F)F)c2-c2ccccc2)CCC3)n1` (centres unmarked) [Example 742, 1-Ethyl-4-fluoro-N′-((3-phenyl-2-(trifluoromethyl)-6,7-dihydro-5H-cyclopenta[b]pyridin-4-yl)carbamoyl)-1H-pyrazole-3-sulfonimidamide], the IC50 under setting [5] lay within 8 to 40 nM. As to `Cc1c(C2(F)CC2)nc2c(c1NC(=O)N=S(N)(=O)c1sc(C(C)(C)O)cc1F)CCC2` (centres unmarked) [Compound 733], the IC50 under setting [2] was 1000 to 5000 nM. In the case of `CCn1cc(F)c(S(N)(=O)=NC(=O)Nc2c3c(nc(C(F)(F)F)c2-c2cccc(F)c2)CCC3)n1` (centres unmarked) [Example 747, 1-Ethyl-4-fluoro-N′-((3-(3-fluorophenyl)-2-(trifluoromethyl)-6,7-dihydro-5H-cyclopenta[b]pyridin-4-yl)cathamoyl)-1H-pyrazole-3-sulfonimidamide], under setting [6], the IC50 lay in the range of 8 to 40 nM.

Turning to `CC(C)(O)c1cc(F)c(S(N)(=O)=NC(=O)Nc2c3c(nc4c2CCC4)CCC3)s1` (centres unmarked) [Compound 105, 3-fluoro-N′-((1,2,3,5,6,7-hexahydrodicyclopenta[b,e]pyridin-8-yl)carbamoyl)-5-(2-hydroxypropan-2-yl)thiophene-2-sulfonimidamide], the concentration for half-maximal inhibition (IC50) under setting [4] fell in the range of 40 to 200 nM.

On to `CC(C)(O)c1ncc(S(N)(=O)=NC(=O)Nc2nc3ccccc3c3c2CCC3)s1` (centres unmarked) [Compound 111, N′-((2,3-dihydro-1H-cyclopenta[c]quinolin-4-yl)carbamoyl)-2-(2-hydroxypropan-2-yl)thiazole-5-sulfonimidamide], for which the IC50 (Homo sapiens, THP-1, Table B1, numeric bounds, read-out: Average IC50 of compounds in hTHP-1 assay: hTHP-1 IC50) is more than 30000 nM.

For `CC(C)(O)c1cc(F)c([S@](N)(=O)=NC(=O)Nc2cc(CC(F)(F)F)nc3c2CCC3)s1` [Compound 602b], under setting [2], the 50% inhibitory concentration (IC50) lay in the range of 1000 to 5000 nM.

Consider `Cc1c(C2CC2)nc2c(c1NC(=O)N=S(N)(=O)c1cc(C(C)(C)O)cs1)CCC2` (single isomer, unassigned) [Compound 175b, (S) or (R)-N′-((2-cyclopropyl-3-methyl-6,7-dihydro-5H-cyclopenta[b]pyridin-4-yl)carbamoyl)-4-(2-hydroxy-propan-2-yl)thiophene-2-sulfonimidamide], for which the concentration for half-maximal inhibition (IC50) under setting [3] lay within 200 to 1000 nM. Regarding `Cc1c(C(F)(F)F)nc2c(c1NC(=O)N=S(N)(=O)c1nn(-c3ccccc3)cc1F)CCC2` (centres unmarked) [Example 749, 4-Fluoro-N′-((3-methyl-2-(trifluoromethyl)-6,7-dihydro-5H-cyclopenta[b]pyridin-4-yl)carbamoyl)-1-phenyl-1H-pyrazole-3-sulfonimidamide], the 50% inhibitory concentration (IC50) under setting [5] was 1000 to 5000 nM. With `CC(C)(O)c1sc(S(N)(=O)=NC(=O)Nc2c3c(nc4c2CCC4(C)C)CCC3)cc1F` (single isomer, unassigned) [Compound 613a, (R) or (S)-N′-((3,3-dimethyl-1,2,3,5,6,7-hexahydrodicyclopenta [b,e]pyridin-8-yl)carbamoyl)-4-fluoro-5-(2-hydroxypropan-2-yl)thiophene-2-sulfonimidamide], the half-maximal inhibitory concentration (IC50) (Table B2, class symbols, read-out: hTHP-1 IC50) lay in the range of 40 to 200 nM. As to `CCn1cc(F)c(S(N)(=O)=NC(=O)Nc2c3c(nc(C(F)(F)F)c2-c2ccccc2F)CCC3)n1` (single isomer, unassigned) [Example 779, (R) or (S)-1-ethyl-4-fluoro-N′-((3-(2-fluorophenyl)-2-(trifluoromethyl)-6,7-dihydro-5H-cyclopenta[b]pyridin-4-yl)carbamoyl)-1H-pyrazole-3-sulfonimidamide], under setting [6], the half-maximal inhibitory concentration (IC50) lay in the range of 8 to 40 nM.

Take `C[C@@H]1CCc2c1nc1c(c2NC(=O)N=S(N)(=O)c2ccn(-c3ccccc3)n2)CCC1` (single isomer, unassigned) [Compound 700a, (S) or (R)-N′-(((R)-3-methyl-1,2,3,5,6,7-hexahydrodicyclopenta [b,e]pyridin-8-yl)carbamoyl)-1-phenyl-1H-pyrazole-3-sulfonimidamide]: the concentration for half-maximal inhibition (IC50) under setting [1] was more than 30000 nM. For the molecule `CC(C)(O)c1cc(F)c(S(N)(=O)=NC(=O)Nc2c3c(nc4c2CCC4)CCC3)s1` (single isomer, unassigned) [Compound 105b, (S) or (R)-3-fluoro-N′-((1,2,3,5,6,7-hexahydro-dicyclopenta[b,e]pyridin-8-yl)carbamoyl)-5-(2-hydroxypropan-2-yl)thio-phene-2-sulfonimidamide], the IC50 under setting [3] was in the range of 1000 to 5000 nM. On to `Cc1c(C2CCC2)nc2c(c1NC(=O)N=S(N)(=O)c1cc(C(C)(C)O)cs1)CCC2` (single isomer, unassigned) [Compound 658a, (S) or (R)-N′-((2-cyclobutyl-3-methyl-6,7-dihydro-5H-cyclopenta[b]pyridin-4-yl)carbamoyl)-4-(2-hydroxypropan-2-yl)thiophene-2-sulfonimidamide], for which the concentration for half-maximal inhibition (IC50) under setting [1] is more than 30000 nM.
